Data from patent US10821100B2, “Triazolone compounds as mPGES-1 inhibitors” (Glenmark Pharmaceuticals S.A., priority 2012, dated 2020).

Biological target: T1, Recombinant human mPGES-1 (Homo sapiens, UniProt O14684)
T1 construct: made in house; host or cells: CHO cells (crude microsomal fractions)
T1 sequence (O14684 1-152): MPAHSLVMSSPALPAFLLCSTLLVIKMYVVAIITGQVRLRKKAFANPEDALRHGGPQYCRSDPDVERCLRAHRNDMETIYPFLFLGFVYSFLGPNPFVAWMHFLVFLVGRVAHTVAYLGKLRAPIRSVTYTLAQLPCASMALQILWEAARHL
Experiment: In-vitro screening of mPGES-1 inhibitors (inhibition of PGE2 formation from PGH2, HTRF detection)
Assay type: biochemical
Conditions: mPGES-1 enzyme; for inhibition at 1 µM: 1 μM test compound, read-out: Percentage inhibition at 1 μM; for inhibition at 1 µM / inhibition at 10 µM: crude microsomal fractions; for inhibition at 10 µM: 10 μM test compound, read-out: Percentage inhibition at 10 μM; for IC50: class symbols
From the text: In-Vitro Protocol for Screening of mPGES-1 Inhibitors: mPGES-1 (Microsomal prostaglandin E synthase-1) is a microsomal enzyme that converts endoperoxide substrate PGH2 (prostaglandin H2) to product PGE2 (prostaglandin E2) by isomerization in the presence of reduced glutathione (GSH). mPGES-1 inhibitors were screened by assessing their ability to inhibit formation of PGE2 from PGH2 in the presence of mPGES-1 using an anti-PGE2 antibody based detection method. Recombinant human mPGES-1 was generated in-house by expression in CHO cells (Ouellet M et al. (2002), Protein Expression and Purification 26: 489-495). The assay was set up using crude microsomal fractions at a protein concentration of 40-60 μg/mL. Test compounds were prepared in 100% dimethyl sulfoxide (DMSO) to obtain 20 mM stock solution and then diluted using assay buffer comprising 0.1 M Potassium phosphate buffer with 2 mM EDTA. The final concentration of DMSO in the reaction was 0.5% (v/v). Negative controls were comprised of all assay reagents except the enzyme. Positive controls were comprised of the enzyme reaction in the absence of any inhibitor. Test compounds were incubated for 10 minutes in assay buffer containing 2.5 mM GSH and mPGES-1 enzyme followed by addition of PGH2 at a concentration of 15 μM for 1 minute. The reaction was stopped by addition of Stannous chloride (11 mg/ml) and PGE2 levels were measured ([…] et al. (2005), Journal of Biomolecular Screening 10(6) 599-605; Goedken R E et al. (2008), Journal of Biomolecular Screening 13 (7): 619-625) by HTRF kit (CisBio)). Inhibition of mPGES-1 enzyme activity was measured using the percent of reaction occurring in the positive control. Concentration response curves were plotted using percent inhibition of maximum enzyme reaction. The IC50 value was calculated from the concentration response curve by nonlinear regression analysis using GraphPad PRISM software.

inhibition at 1 µM | inhibition at 10 µM | IC50 | SMILES
74.4% | 88.9% | > 0.1 µM | COc1cc(-n2nc(-c3c(F)cccc3Cl)[nH]c2=O)ccc1C(=O)NCc1ccccc1C(F)(F)F [Example-25, 4-[3-(2-Chloro-6-fluorophenyl)-5-oxo-4,5-dihydro-1H-1,2,4-triazol-1-yl]-2-methoxy-N-[2-(trifluoromethyl)benzyl]benzamide]
80.6% | 88.1% | > 0.1 µM | COc1cc(-n2nc(-c3c(F)cccc3Cl)[nH]c2=O)ccc1C(=O)NC1(c2ccccc2C(F)(F)F)CC1 [Example-26, 4-(3-(2-Chloro-6-fluorophenyl)-5-oxo-4,5-dihydro-1H-1,2,4-triazol-1-yl)-2-methoxy-N-(1-(2-(trifluoromethyl)phenyl)cyclopropyl)benzamide]
72.8% | 97.5% |  | COc1cc(-n2nc(-c3c(F)cccc3Cl)[nH]c2=O)ccc1C(=O)NC1(c2ccc(C(F)(F)F)cc2)CC1 [Example-27, 4-(3-(2-Chloro-6-fluorophenyl)-5-oxo-4,5-dihydro-1H-1,2,4-triazol-1-yl)-2-methoxy-N-(1-(4-(trifluoromethyl)phenyl)cyclopropyl)benzamide]
72.2% | 95.5% |  | O=C(NCc1ccc(F)cc1C(F)(F)F)c1ccc(-n2nc(-c3c(F)cccc3Cl)[nH]c2=O)cc1 [Example-28, 4-(3-(2-Chloro-6-fluorophenyl)-5-oxo-4,5-dihydro-1H-1,2,4-triazol-1-yl)-N-(4-fluoro-2-(trifluoromethyl)benzyl)benzamide]
79.2% | 85.8% | > 0.1 µM | O=C(Nc1ccc(C(F)(F)F)cc1)c1ccc(-n2nc(-c3c(F)cccc3Cl)[nH]c2=O)cc1 [Example-29, 4-(3-(2-Chloro-6-fluorophenyl)-5-oxo-4,5-dihydro-1H-1,2,4-triazol-1-yl)-N-(4-(trifluoromethyl)phenyl)benzamide]
89.6% | 94.5% | < 0.05 µM | O=c1[nH]c(-c2c(F)cccc2Cl)nn1-c1ccc(-c2nc(-c3ccc(F)cc3)no2)cc1 [Example-30, 3-(2-Chloro-6-fluorophenyl)-1-(4-(3-(4-fluorophenyl)-1,2,4-oxadiazol-5-yl)phenyl)-1H-1,2,4-triazol-5(4H)-one]
96.9% | 98.6% | 0.05 to 0.1 µM | O=C(Nc1cccc(C(F)(F)F)c1)c1ccc(-n2nc(-c3c(F)cccc3Cl)[nH]c2=O)cc1 [Example-31, 4-(3-(2-Chloro-6-fluorophenyl)-5-oxo-4,5-dihydro-1H-1,2,4-triazol-1-yl)-N-(3-(trifluoromethyl)phenyl)benzamide]
88.8% | 94% | 0.05 to 0.1 µM | O=C(Nc1ccc(F)c(C(F)(F)F)c1)c1ccc(-n2nc(-c3c(F)cccc3Cl)[nH]c2=O)cc1 [Example-32, 4-(3-(2-Chloro-6-fluorophenyl)-5-oxo-4,5-dihydro-1H-1,2,4-triazol-1-yl)-N-(4-fluoro-3-(trifluoromethyl)phenyl)benzamide]
89.4% | 96.8% | < 0.05 µM | COc1cc(-n2nc(-c3c(F)cccc3Cl)[nH]c2=O)ccc1C(=O)Nc1ccc(F)c(C(F)(F)F)c1 [Example-33, 4-(3-(2-Chloro-6-fluorophenyl)-5-oxo-4,5-dihydro-1H-1,2,4-triazol-1-yl)-N-(4-fluoro-3-(trifluoromethyl)phenyl)-2-methoxybenzamide]
70.7% | 92.3% |  | O=C(Nc1cc(C(F)(F)F)ccc1F)c1ccc(-n2nc(-c3c(F)cccc3Cl)[nH]c2=O)cc1 [Example-34, 4-(3-(2-Chloro-6-fluorophenyl)-5-oxo-4,5-dihydro-1H-1,2,4-triazol-1-yl)-N-(2-fluoro-5-(trifluoromethyl)phenyl)benzamide]
37.4% | 59.1% |  | Cc1ccc(NC(=O)c2ccc(-n3nc(-c4c(F)cccc4Cl)[nH]c3=O)cc2)c(F)c1 [Example-35, 4-(3-(2-Chloro-6-fluorophenyl)-5-oxo-4,5-dihydro-1H-1,2,4-triazol-1-yl)-N-(2-fluoro-4-methylphenyl)benzamide]
97.3% | 98.9% | < 0.05 µM | COc1cc(-n2nc(-c3c(F)cccc3Cl)[nH]c2=O)ccc1C(=O)Nc1cc(C(F)(F)F)ccc1F [Example-36, 4-(3-(2-Chloro-6-fluorophenyl)-5-oxo-4,5-dihydro-1H-1,2,4-triazol-1-yl)-N-(2-fluoro-5-(trifluoromethyl)phenyl)-2-methoxybenzamide]
51% | 94.3% |  | Cc1ccc(Cl)cc1NC(=O)c1ccc(-n2nc(-c3c(F)cccc3Cl)[nH]c2=O)cc1 [Example-37, N-(5-Chloro-2-methylphenyl)-4-(3-(2-chloro-6-fluorophenyl)-5-oxo-4,5-dihydro-1H-1,2,4-triazol-1-yl)benzamide]
87.4% | 84.9% | 0.05 to 0.1 µM | COc1cc(-n2nc(-c3c(F)cccc3Cl)[nH]c2=O)ccc1C(=O)Nc1cc(Cl)ccc1C [Example-38, N-(5-Chloro-2-methylphenyl)-4-(3-(2-chloro-6-fluorophenyl)-5-oxo-4,5-dihydro-1H-1,2,4-triazol-1-yl)-2-methoxybenzamide]
90.1% | 96.4% | 0.05 to 0.1 µM | COc1cc(-n2nc(-c3c(F)cccc3Cl)[nH]c2=O)ccc1C(=O)Nc1ccc(C)cc1F [Example-39, 4-(3-(2-Chloro-6-fluorophenyl)-5-oxo-4,5-dihydro-1H-1,2,4-triazol-1-yl)-N-(2-fluoro-4-methylphenyl)-2-methoxybenzamide]
89% | 90.7% | < 0.05 µM | COc1cc(-n2nc(-c3c(F)cccc3Cl)[nH]c2=O)ccc1-c1nc(-c2ccc(Cl)cc2)no1 [Example-40, 3-(2-Chloro-6-fluorophenyl)-1-(4-(3-(4-chlorophenyl)-1,2,4-oxadiazol-5-yl)-3-methoxyphenyl)-1H-1,2,4-triazol-5(4H)-one]
58.8% | 87.1% |  | COc1cc(OC)cc(-c2noc(-c3ccc(-n4nc(-c5c(F)cccc5Cl)[nH]c4=O)cc3OC)n2)c1 [Example-41, 3-(2-Chloro-6-fluorophenyl)-1-(4-(3-(3,5-dimethoxyphenyl)-1,2,4-oxadiazol-5-yl)-3-methoxyphenyl)-1H-1,2,4-triazol-5(4H)-one]
96.5% | 99.7% | < 0.05 µM | COc1cc(-n2nc(-c3c(Cl)cccc3Cl)[nH]c2=O)ccc1C(=O)Nc1cccc(C(F)(F)F)c1 [Example-42, 4-(3-(2,6-Dichlorophenyl)-5-oxo-4,5-dihydro-1H-1,2,4-triazol-1-yl)-2-methoxy-N-(3-(trifluoromethyl)phenyl)benzamide]
98.6% | 99% | < 0.05 µM | COc1cc(-n2nc(-c3c(Cl)cccc3Cl)[nH]c2=O)ccc1C(=O)Nc1ccc(F)c(C(F)(F)F)c1 [Example-43, 4-(3-(2,6-Dichlorophenyl)-5-oxo-4,5-dihydro-1H-1,2,4-triazol-1-yl)-N-(4-fluoro-3-(trifluoromethyl)phenyl)-2-methoxybenzamide]
97.4% | 99% | < 0.05 µM | COc1cc(-n2nc(-c3c(Cl)cccc3Cl)[nH]c2=O)ccc1C(=O)Nc1cc(C(F)(F)F)ccc1F [Example-44, 4-(3-(2,6-Dichlorophenyl)-5-oxo-4,5-dihydro-1H-1,2,4-triazol-1-yl)-N-(2-fluoro-5-(trifluoromethyl)phenyl)-2-methoxybenzamide]
81.7% | 90.1% | < 0.05 µM | COc1cc(-n2nc(-c3c(F)cccc3Cl)[nH]c2=O)ccc1C(=O)Nc1nc2ccc(F)cc2s1 [Example-45, 4-(3-(2-Chloro-6-fluorophenyl)-5-oxo-4,5-dihydro-1H-1,2,4-triazol-1-yl)-N-(6-fluorobenzo[d]thiazol-2-yl)-2-methoxybenzamide]
59.8% | 72.1% |  | COc1cc(-n2nc(-c3c(F)cccc3Cl)[nH]c2=O)ccc1C(=O)Nc1nc2ccccc2[nH]1 [Example-46, N-(1H-Benzo[d]imidazol-2-yl)-4-(3-(2-chloro-6-fluorophenyl)-5-oxo-4,5-dihydro-1H-1,2,4-triazol-1-yl)-2-methoxybenzamide]
